The results in this text go back to PMC11210663 (Emerging Infectious Diseases, 2024).

This assay deals with influenza A(H1N1)pdm09 viruses tested during the 2022–23 influenza season. In kind it is biochemical, influenza A(H1N1)pdm09 virus. As to conditions: read-out: NA inhibitors median IC50 2022–2023 (reference).

As usually defined, the IC50 is the concentration needed to halve the response being measured. Regarding `CCC(CC)[C@H](NC(C)=O)[C@@H]1[C@H](O)[C@@H](C(=O)O)C[C@H]1N=C(N)N` [Peramivir, peramivir], the IC50 was determined as 70 pM.
